Assay results as given in PubChem BioAssay AID1259411 (Chemical Carcinogenesis Research Information System (CCRIS), 2018).
Activity calls are given as the source filed them. The rule behind the calls is not given here.

Tested on: rodent carcinogenicity bioassays, tumor incidence
Assay: CCRIS carcinogenicity studies
Conditions: Dose: 0, Dose: 0
In short: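 Archive of carcinogenicity, mutagenicity, tumor promotion and tumor inhibition results drawn from journals, NCI reports and other sources, expert-reviewed; covers 1985-2011 and is no longer updated.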

Question: How did the carcinogen call (Species: MOUSE, Strain/Sex: B6C3F1/FEMALE, Route: ORAL, 40, 240, 600 MG/KG IN DIET FOR 80 WK (STUDY DURATION: 80 WK), 40, 240, 600 MG/KG IN DIET FOR 80 WK (STUDY DURATION: 80 WK), Tumor Site: Type of Lesion: LUNG: ALVEOLOGENIC ADENOCARCINOMA) turn out when `CS(=O)CC(=O)c1ccccn1` (stereo not drawn) was run?
Answer: Its carcinogen call is “active; positive”.

Question: What about the carcinogen call (Species: MOUSE, Strain/Sex: CF1/MALE, Route: ORAL, 40, 240, 600 MG/KG IN DIET FOR 80 WK (STUDY DURATION: 80 WK), 40, 240, 600 MG/KG IN DIET FOR 80 WK (STUDY DURATION: 80 WK)) of the same compound?
Answer: Its carcinogen call is “inactive; negative”.

Question: And the carcinogen call (Species: RAT, Strain/Sex: WISTAR/FEMALE, Route: ORAL, 40, 240, 600 MG/KG IN DIET FOR 104 WK (STUDY DURATION: 104 WK), 40, 240, 600 MG/KG IN DIET FOR 104 WK (STUDY DURATION: 104 WK))?
Answer: Its carcinogen call is “inactive; negative”.

Question: And the carcinogen call (Species: RAT, Strain/Sex: WISTAR/MALE, Route: ORAL, 40, 240, 600 MG/KG IN DIET FOR 104 WK (STUDY DURATION: 104 WK), 40, 240, 600 MG/KG IN DIET FOR 104 WK (STUDY DURATION: 104 WK), Tumor Site: Type of Lesion: LIVER: HEPATOCELLULAR ADENOMA)?
Answer: Its carcinogen call is “active; positive”.

Question: `CCNC(=O)N(C)N=O` was tested. Which carcinogen call (Species: RAT, Strain/Sex: F344/FEMALE, Route: GAVAGE, 20, 40 UMOL/WK IN CORN OIL/ETHYL ACETATE (2: 1) FOR 30 WK (LOW DOSE) OR 15 WK (HIGH DOSE) FOR TOTAL DOSES OF 0, 0.6;, 20, 40 UMOL/WK IN CORN OIL/ETHYL ACETATE (2: 1) FOR 30 WK (LOW DOSE) OR 15 WK (HIGH DOSE) FOR TOTAL DOSES OF 0, 0.6;, Tumor Site: Type of Lesion: NERVOUS SYSTEM: TUMOR, THYMUS: TUMOR) did it give?
Answer: Its carcinogen call is “active; positive”.

Question: And the carcinogen call (Species: RAT, Strain/Sex: F344/FEMALE, Route: ORAL, 20, 40 UMOL/WK IN DRINKING WATER FOR 30 WK FOR TOTAL DOSES OF 0, 0.6, 1.2 MMOL (STUDY DURATION: LIFETIME), 20, 40 UMOL/WK IN DRINKING WATER FOR 30 WK FOR TOTAL DOSES OF 0, 0.6, 1.2 MMOL (STUDY DURATION: LIFETIME), Tumor Site: Type of Lesion: NERVOUS SYSTEM: TUMOR, KIDNEY: TUMOR)?
Answer: The carcinogen call was “active; positive”.

Question: And the carcinogen call (Species: RAT, Strain/Sex: F344/MALE, Route: GAVAGE, 20, 40 UMOL/WK IN CORN OIL/ETHYL ACETATE (2: 1) FOR 30 WK FOR TOTAL DOSES OF 0, 0.6, 1.2 MMOL (STUDY DURATION: LIFETI, 20, 40 UMOL/WK IN CORN OIL/ETHYL ACETATE (2: 1) FOR 30 WK FOR TOTAL DOSES OF 0, 0.6, 1.2 MMOL (STUDY DURATION: LIFETI, Tumor Site: Type of Lesion: NERVOUS SYSTEM: TUMOR, TESTIS: MESOTHELIOMA)?
Answer: The carcinogen call was “active; positive”.

Question: And the carcinogen call (Species: RAT, Strain/Sex: F344/MALE, Route: ORAL, 20, 40 UMOL/WK IN DRINKING WATER FOR 30 WK FOR TOTAL DOSES OF 0, 0.6, 1.2 MMOL (STUDY DURATION: LIFETIME), 20, 40 UMOL/WK IN DRINKING WATER FOR 30 WK FOR TOTAL DOSES OF 0, 0.6, 1.2 MMOL (STUDY DURATION: LIFETIME), Tumor Site: Type of Lesion: LUNG: TUMOR, NERVOUS SYSTEM: TUMOR)?
Answer: The carcinogen call was “active; positive”.

Question: `CN1CCC[C@H]1c1cccnc1` was tested. Which carcinogen call (Species: RAT, Strain/Sex: F344/FEMALE, Route: INHALATION, 500 UG/M3 20 HR/D 5 D/WK FOR 2 YR (STUDY DURATION: 2 YR)) did it give?
Answer: Its carcinogen call is “inactive; negative”.

Question: What does the source list for `O=CNNC=O`?
Answer: carcinogen call (Species: MOUSE, Strain/Sex: SWISS/FEMALE, Route: ORAL, 2% SOLUTION IN DRINKING WATER FROM AGE 6 WK FOR LIFE FOR AN AVERAGE DAILY INTAKE OF 0, 144 MG, 2% SOLUTION IN DRINKING WATER FROM AGE 6 WK FOR LIFE FOR AN AVERAGE DAILY INTAKE OF 0, 144 MG, Tumor Site: Type of Lesion: LUNG: ADENOMA OR ADENOCARCINOMA): active; positive; carcinogen call (Species: MOUSE, Strain/Sex: SWISS/MALE, Route: ORAL, 2% SOLUTION IN DRINKING WATER FROM AGE 6 WK FOR LIFE FOR AN AVERAGE DAILY INTAKE OF 0, 146 MG, 2% SOLUTION IN DRINKING WATER FROM AGE 6 WK FOR LIFE FOR AN AVERAGE DAILY INTAKE OF 0, 146 MG, Tumor Site: Type of Lesion: LUNG: ADENOMA OR ADENOCARCINOMA): active; positive

Question: Which carcinogen call (Species: MOUSE, Strain/Sex: B6C3F1/FEMALE, Route: ORAL, 0.8% IN DIET FOR 96 WK (STUDY DURATION: 96 WK), Tumor Site: Type of Lesion: GLANDULAR STOMACH: ADENOMA) does the source give for `Oc1ccccc1O` here?
Answer: Its carcinogen call is “active; positive”.

Question: And the carcinogen call (Species: MOUSE, Strain/Sex: B6C3F1/FEMALE, Route: ORAL, 0.8% IN POWDERED BASAL DIET FOR 96 WK (STUDY DURATION: 96 WK))?
Answer: Its carcinogen call is “inactive; negative”.

Question: What about the carcinogen call (Species: MOUSE, Strain/Sex: B6C3F1/MALE, Route: ORAL, 0.8% IN DIET FOR 96 WK (STUDY DURATION: 96 WK), Tumor Site: Type of Lesion: GLANDULAR STOMACH: ADENOMA) of the same compound?
Answer: The carcinogen call was “active; positive”.

Question: What about the carcinogen call (Species: MOUSE, Strain/Sex: B6C3F1/MALE, Route: ORAL, 0.8% IN POWDERED BASAL DIET FOR 96 WK (STUDY DURATION: 96 WK)) of the same compound?
Answer: The carcinogen call was “inactive; negative”.

Question: What about the carcinogen call (Species: RAT, Strain/Sex: F344/FEMALE, Route: ORAL, 0.8% IN DIET FOR 104 WK (STUDY DURATION: 104 WK), Tumor Site: Type of Lesion: GLANDULAR STOMACH: ADENOMA, ADENOCARCINOMA) of the same compound?
Answer: Its carcinogen call is “active; positive”.

Question: What about the carcinogen call (Species: RAT, Strain/Sex: F344/FEMALE, Route: ORAL, 0.8% IN POWDERED BASAL DIET FOR 104 WK (STUDY DURATION: 104 WK), Tumor Site: Type of Lesion: GLANDULAR STOMACH: ADENOCARCINOMA) of the same compound?
Answer: Its carcinogen call is “active; positive”.

Question: And the carcinogen call (Species: RAT, Strain/Sex: F344/FEMALE, Route: ORAL, 2% IN DIET FOR 104 WK (STUDY DURATION: 104 WK), Tumor Site: Type of Lesion: GLANDULAR STOMACH: ADENOCARCINOMA)?
Answer: Its carcinogen call is “active; positive”.

Question: What about the carcinogen call (Species: RAT, Strain/Sex: F344/MALE, Route: ORAL, 0.1, 0.2, 0.4, 0.8% IN DIET FOR 104 WK (STUDY DURATION: 104 WK), 0.1, 0.2, 0.4, 0.8% IN DIET FOR 104 WK (STUDY DURATION: 104 WK), Tumor Site: Type of Lesion: GLANDULAR STOMACH: ADENOMA, PANCREAS: ACINAR CELL ADENOMA) of the same compound?
Answer: The carcinogen call was “active; positive”.

Question: What about the carcinogen call (Species: RAT, Strain/Sex: F344/MALE, Route: ORAL, 0.16% IN DIET FOR DURATION OF STUDY (STUDY DURATION: 104 WK), Tumor Site: Type of Lesion: GLANDULAR STOMACH: ADENOMA) of the same compound?
Answer: The carcinogen call was “active; positive”.

Question: And the carcinogen call (Species: RAT, Strain/Sex: F344/MALE, Route: ORAL, 0.8% IN DIET FOR 12, 24, 48, 72, OR 96 WK FOLLOWED BY BASAL DIET FOR 84, 72, 48, 24, AND 0 WK RESPECTIVELY (STUDY DUR, Tumor Site: Type of Lesion: STOMACH: ADENOMA, ADENOCARCINOMA)?
Answer: Its carcinogen call is “active; positive”.

Question: And the carcinogen call (Species: RAT, Strain/Sex: F344/MALE, Route: ORAL, 0.8% IN DIET FOR 104 WK (STUDY DURATION: 104 WK), Tumor Site: Type of Lesion: GLANDULAR STOMACH: ADENOMA, ADENOCARCINOMA)?
Answer: Its carcinogen call is “active; positive”.

Question: What about the carcinogen call (Species: RAT, Strain/Sex: F344/MALE, Route: ORAL, 0.8% IN POWDERED BASAL DIET FOR 104 WK (STUDY DURATION: 104 WK), Tumor Site: Type of Lesion: GLANDULAR STOMACH: ADENOCARCINOMA) of the same compound?
Answer: The carcinogen call was “active; positive”.

Question: And the carcinogen call (Species: RAT, Strain/Sex: F344/MALE, Route: ORAL, 2% IN DIET FOR 104 WK (STUDY DURATION: 104 WK), Tumor Site: Type of Lesion: GLANDULAR STOMACH: ADENOCARCINOMA)?
Answer: The carcinogen call was “active; positive”.

Question: And the carcinogen call (Species: RAT, Strain/Sex: LEWIS/MALE, Route: ORAL, 0.8% IN DIET FOR 104 WK (STUDY DURATION: 104 WK), Tumor Site: Type of Lesion: GLANDULAR STOMACH: ADENOMA, ADENOCARCINOMA)?
Answer: Its carcinogen call is “active; positive”.

Question: And the carcinogen call (Species: RAT, Strain/Sex: SPRAGUE-DAWLEY/MALE, Route: ORAL, 0.8% IN DIET FOR 104 WK (STUDY DURATION: 104 WK), Tumor Site: Type of Lesion: GLANDULAR STOMACH: ADENOMA, ADENOCARCINOMA, FORESTOMACH: PAPILLOMA)?
Answer: Its carcinogen call is “active; positive”.

Question: What about the carcinogen call (Species: RAT, Strain/Sex: WISTAR/MALE, Route: ORAL, 0.8% IN DIET FOR 104 WK (STUDY DURATION: 104 WK), Tumor Site: Type of Lesion: GLANDULAR STOMACH: ADENOMA, ADENOCARCINOMA) of the same compound?
Answer: The carcinogen call was “active; positive”.

Question: What about the carcinogen call (Species: RAT, Strain/Sex: WKY/MALE, Route: ORAL, 0.8% IN DIET FOR 104 WK (STUDY DURATION: 104 WK), Tumor Site: Type of Lesion: GLANDULAR STOMACH: ADENOMA) of the same compound?
Answer: The carcinogen call was “active; positive”.
